From ChEMBL document CHEMBL6134844, “Development of Next-Generation Antimalarial Acridones with Radical Cure Potential” (J Med Chem, 2025)
Activity calls are given as the source filed them. The calls are words filed in the database; no cut-off is given here.

Assays:
Plasmodium yoelii [1] = assay: In vivo antiplasmodial activity against asexual blood-stage (ABS) Plasmodium yoelii MRA-428 infected in 4-day suppression CF1 mouse model assessed as reduction in parasitemia treated 24 hrs post infection daily measured on day 4; format: functional
[2] = (§1) Selectivity index, ratio of CC50 for Macaca mulatta hepatocytes to IC50 for antiplasmodial activity against schizont Plasmodium cynomolgi B strain infected in Macaca mulatta hepatocytes incubated with sporozoite containing salivary gland homogenate obtained from dissected Anopheles dirus mosquitoes (infected with Plasmodium cynomolgi B strain) treatment started on day 4 post infection and continued daily for 4 days into fresh changed media until day 8 assessed as Liver stage (LS) activity by measuring radical cure mode by immunofluorescent staining analysis; format: toxicity, cell-based; conditions: rhesus monkey, read-out: Selectivity Index
[3] = as §1, with “hypnozoite” for “schizont”, “prophylactic” for “radical cure”; format: toxicity, cell-based; conditions: rhesus monkey, read-out: Selectivity Index
Plasmodium yoelii [4] = assay: In vivo antiplasmodial activity against asexual blood-stage (ABS) Plasmodium yoelii MRA-428 infected in 4-day suppression CF1 mouse model assessed as reduction in parasitemia by measuring protection at 30 mg/kg, po treated 24 hrs post infection daily measured up to 28 days; format: functional, organism-based; conditions: time <= 28.0 day
[5] = human, microsomes, 1 h
Plasmodium cynomolgi [6] = assay: as §1, with “Antiplasmodial” for “Selectivity index, ratio of CC50 for Macaca mulatta hepatocytes to IC50 for antiplasmodial”, “prophylactic” for “radical cure”; format: functional, organism-based; conditions: Hepatocyte
Plasmodium falciparum [7] = assay: Antiplasmodial activity against asexual blood-stage (ABS) CQ-sensitive Plasmodium falciparum D6 infected in human erythrocytes assessed as reduction in fluorescence measured after 72 hrs by Malaria SYBR Green I-based Fluorescence (MSF) assay; format: functional, organism-based; conditions: D6, Erythrocyte
HepG2 = assay: Cytotoxicity against human HepG2 cells assessed as cell viability measured after 48 hrs by MTT assay; format: functional, cell-based; conditions: HepG2, 48 h
[8] = mouse, microsomes, 1 h
Plasmodium falciparum [9] = assay: Antiplasmodial activity against asexual blood-stage (ABS) ATV-resistant clinical isolate Plasmodium falciparum Tm90-C2B infected in human erythrocytes assessed as reduction in fluorescence measured after 72 hrs by Malaria SYBR Green I-based Fluorescence (MSF) assay; format: functional, organism-based; conditions: Erythrocyte
[10] = as §1, with “prophylactic” for “radical cure”; format: toxicity, cell-based; conditions: rhesus monkey, read-out: Selectivity Index
[11] = Toxicity in CF1 mouse infected with asexual blood-stage (ABS) Plasmodium yoelii MRA-428 assessed as behavioural change at 0.3 to 30 mg/kg, po treated 24 hrs post infection measured after 4 days; format: organism-based; conditions: in vivo, dose 0.3-30 mg/kg
Plasmodium cynomolgi [12] = assay: as §1, with “Antiplasmodial” for “Selectivity index, ratio of CC50 for Macaca mulatta hepatocytes to IC50 for antiplasmodial”, “hypnozoite” for “schizont”; format: functional, organism-based; conditions: Hepatocyte
Plasmodium falciparum [13] = assay: Antiplasmodial activity against asexual blood-stage (ABS) MDR Plasmodium falciparum Dd2 infected in human erythrocytes assessed as reduction in fluorescence measured after 72 hrs by Malaria SYBR Green I-based Fluorescence (MSF) assay; format: functional, organism-based; conditions: Dd2, Erythrocyte
Plasmodium cynomolgi [14] = assay: as §1, with “Antiplasmodial” for “Selectivity index, ratio of CC50 for Macaca mulatta hepatocytes to IC50 for antiplasmodial”; format: functional, organism-based; conditions: Hepatocyte
Plasmodium cynomolgi [15] = assay: as §1, with “Antiplasmodial” for “Selectivity index, ratio of CC50 for Macaca mulatta hepatocytes to IC50 for antiplasmodial”, “hypnozoite” for “schizont”, “prophylactic” for “radical cure”; format: functional, organism-based; conditions: Hepatocyte
Hepatocyte = assay: (§2) Cytotoxicity against Macaca mulatta hepatocytes assessed as cell viability measured after 48 hrs by MTT assay; format: toxicity, cell-based; conditions: rhesus monkey, 48 h
[16] = Toxicity in CF1 mouse infected with asexual blood-stage (ABS) Plasmodium yoelii MRA-428 assessed as clinical toxicity at 0.3 to 30 mg/kg, po treated 24 hrs post infection measured after 4 days; format: organism-based; conditions: in vivo, dose 0.3-30 mg/kg
[17] = as §1, with “hypnozoite” for “schizont”; format: toxicity, cell-based; conditions: rhesus monkey, read-out: Selectivity Index
Plasmodium yoelii [18] = assay: In vivo antiplasmodial activity against asexual blood-stage (ABS) Plasmodium yoelii MRA-428 infected in 4-day suppression CF1 mouse model assessed as reduction in parasitemia by measuring cured mouse at 100 mg/kg, po treated 24 hrs post infection daily for 4 days; format: functional, organism-based
in vitro = conditions: human, liver microsomes
[19] = as §2; format: toxicity, cell-based, Hepatocyte; conditions: rhesus monkey
Plasmodium berghei = assay: In vivo antiplasmodial activity against luciferase expressing liver stage Plasmodium berghei ANKA MRA-868 sporozoites infected in Albino C57BL/6 mouse model assessed as blood stage infection at 40 mg/kg, po daily measured 72 hrs; format: functional, organism-based

SMILES | selectivity ratio at 96 h [2] | selectivity ratio at 96 h [3] | Activity (Plasmodium yoelii [4]) | t1/2 [5] | IC50 (Plasmodium cynomolgi [6]) | IC50 (Plasmodium falciparum [7]) | IC50 (HepG2) | CLH [8] | IC50 (Plasmodium falciparum [9]) | selectivity ratio at 96 h [10] | Activity [11] | IC50 (Plasmodium cynomolgi [12]) | IC50 (Plasmodium falciparum [13]) | IC50 (Plasmodium cynomolgi [14]) | IC50 (Plasmodium cynomolgi [15]) | CC50 (Hepatocyte) | Activity [16] | selectivity ratio at 96 h [17] | half-life at 1 h (in vitro) | CC50 at 48 h [19] | also measured
O=c1c2ccc(Oc3ccc(OC(F)(F)F)cc3)cc2[nH]c2cc(F)c(Cl)cc12 | > 3.05 | > 48.8 | Active; Out Of 4 - 3 Mouse Cured | > 1 h | 600 nM | 4.38 nM | > 200000 nM | < 3.125 µL/min/mg | 48.4 nM | > 33.3 | Non-toxic | > 20000 nM | 4.35 nM | 6550 nM | 410 nM | > 20000 nM | Non-toxic |  |  |  | ED90 (Plasmodium yoelii [1]): 0.17 mg/kg
O=c1c2ccc(OCc3cccc(OC(F)(F)F)c3)cc2[nH]c2cc(Cl)cc(F)c12 | 5.34 | 12.6 | Active; Out Of 4 - 3 Mouse Cured | > 1 h | 20 nM | 0.077 nM | > 200000 nM | 57.4 µL/min/mg | 0.977 nM | 165 | Non-toxic | 710 nM | 0.01 nM | 620 nM | 250 nM | 3310 nM | Non-toxic | 4.66 |  |  | Activity (Plasmodium yoelii [18]): Active
O=c1c2ccc(Oc3cccc(C(F)(F)F)c3)cc2[nH]c2cc(F)c(Cl)cc12 |  | > 14.4 |  |  | 360 nM | 5.19 nM | > 200000 nM | 14.2 µL/min/mg | 59.4 nM | > 55.6 |  | > 20000 nM | 3.87 nM | > 20000 nM | 1390 nM |  |  |  | > 1 h | > 20000 nM | 
O=c1c2ccc(OCc3cccc(OC(F)(F)F)c3)cc2[nH]c2cc(F)cc(Cl)c12 | 1.68 | 5.09 |  | > 1 h | 150 nM | 0.03 nM | > 200000 nM | 33.5 µL/min/mg | 20.4 nM | 39.5 | Non-toxic | 4230 nM | 0.004 nM | 3520 nM | 1170 nM | 5930 nM | Non-toxic | 1.4 |  |  | Activity (Plasmodium berghei): Active; Out Of 5 - 5 Mouse Cured
O=c1c2ccc(Oc3cccc(OC(F)(F)F)c3)cc2[nH]c2cc(F)c(Cl)cc12 |  | > 23 |  |  | 120 nM | 3.57 nM | > 200000 nM | < 3.125 µL/min/mg | 61.2 nM | > 167 |  | > 20000 nM | 3.15 nM | > 20000 nM | 870 nM |  |  |  | > 1 h | > 20000 nM | 
